Measured values: patent US20060004104A1, “Methods and compositions for treatment of cancer pain” (priority 2002, published 2006)

Assays:
Assay type in all cases: in vivo
[1] = tested on: intra-tibial MRMT-1 rat mammary gland carcinoma cells (bone cancer pain); assay: Rat model of bone cancer pain: mechanical allodynia (static and dynamic); settings: day 20; for static allodynia (punctuate stimulus), ipsilateral paw: 90 minutes after the last administration
Procedure: Adult female rats are given intra-tibial injections of MRMT-1 rat mammary gland carcinoma cells (3 μl, 10^7 cells/ml). These animals gradually develop mechanical hyperalgesia, mechanical allodynia (skin sensitivity to non-noxious stimuli) and hind limb sparing, beginning on day 12-14 following cell injection.

[2] = tested on: intra-tibial MRMT-1 rat mammary gland carcinoma cells (bone cancer pain); assay: Rat model of bone cancer pain: weight-bearing difference (hind limb sparing); settings: for weight-bearing difference between contralateral and ipsilateral paw: measured 1 hour after drug administration
Procedure: Adult female rats are given intra-tibial injections of MRMT-1 rat mammary gland carcinoma cells (3 μl, 10^7 cells/ml). These animals gradually develop mechanical hyperalgesia, mechanical allodynia (skin sensitivity to non-noxious stimuli) and hind limb sparing, beginning on day 12-14 following cell injection. […] Intra-tibial inoculation of MRMT-1 cells induces a time-dependent hypersensitivity in the ipsilateral limb, measured as a shift in body weight to the contralateral limb. The increase in weight-bearing difference between contralateral and ipsilateral paw (weight shift from the affected to the unaffected limb) is evident by day 14 post-inoculation and continues to increase until day 20. […] This effect is significant for COX189 on days 10, 14, 17 and 20 as well as for valdecoxib (30 mg/kg, p.o.) on day 20. […] Lower doses are not studied. […] The treatments induces a progressive and long-lasting reduction in hypersensitivity, since the weight-bearing difference is also attenuated when measured 1 h before the first daily treatment. This preventative effect reaches significant levels for all three treatments on days 14 and 17. There is no significant difference between the effects measured before and after COX189 administration on each day for any individual treatment.

[3] = tested on: intra-tibial MRMT-1 rat mammary gland carcinoma cells (bone cancer); assay: Rat model of bone cancer pain: radiologically observed structural changes and bone mineral density
Procedure: Adult female rats are given intra-tibial injections of MRMT-1 rat mammary gland carcinoma cells (3 μl, 10^7 cells/ml).

[4] = 30 mg/kg repeated administration, day 20

## Cc1onc(-c2ccccc2)c1-c1ccc(S(N)(=O)=O)cc1 [valdecoxib, reference compound]
[1]; 30 mg/kg p.o. repeated
  static allodynia (punctuate stimulus), ipsilateral paw: significantly reverses
[2]; 30 mg/kg p.o. repeated, day 20
  weight-bearing difference between contralateral and ipsilateral paw: significant

## Cc1ccc(Nc2c(F)cccc2Cl)c(CC(=O)O)c1 [COX189, 5-methyl-2-(2′-chloro-6′-fluoroanilino)-phenylacetic acid]
[3]; 10 mg/kg repeated administration, day 20
  radiologically observed structural changes: significantly inhibits
[3]; [4]
  loss of bone mineral density compared to vehicle treated animals: significantly inhibit
  radiologically observed structural changes: significantly inhibits
[3]; summary statement, no dose given
  radiologically observed structural changes in an animal model of bone cancer pain: inhibit
[1]; 10 mg/kg p.o. repeated
  static allodynia (punctuate stimulus), ipsilateral paw: significantly reverses
[1]; 30 mg/kg p.o. repeated
  dynamic allodynia (light stroking of the skin), ipsilateral paw: reaches statistical significance
  static allodynia (punctuate stimulus), ipsilateral paw: significantly reverses
[2]; 10 mg/kg p.o. repeated from day 10 post-inoculation, days 14, 17 and 20
  weight-bearing difference between contralateral and ipsilateral paw: significantly attenuates
[2]; 30 mg/kg p.o. repeated from day 10 post-inoculation, days 14, 17 and 20
  weight-bearing difference between contralateral and ipsilateral paw: significantly attenuates
[2]; 10 versus 30 mg/kg p.o.
  dose-dependence of the effect on weight-bearing difference: not dose-dependent
